Results as given in patent US12275731B2, “Azaindole inhibitors of wild-type and mutant forms of LRRK2” (DANA-FARBER CANCER INSTITUTE, INC., priority 2018, dated 2025).

What was measured:
Assay in all cases: KinomeScan profiling
Format in all cases: binding
GRK3 = biological target: T1, GRK3 (Homo sapiens, UniProt P35626); conditions: GRK3, 1 μM; read-out: % control
T1 sequence (P35626 1-688): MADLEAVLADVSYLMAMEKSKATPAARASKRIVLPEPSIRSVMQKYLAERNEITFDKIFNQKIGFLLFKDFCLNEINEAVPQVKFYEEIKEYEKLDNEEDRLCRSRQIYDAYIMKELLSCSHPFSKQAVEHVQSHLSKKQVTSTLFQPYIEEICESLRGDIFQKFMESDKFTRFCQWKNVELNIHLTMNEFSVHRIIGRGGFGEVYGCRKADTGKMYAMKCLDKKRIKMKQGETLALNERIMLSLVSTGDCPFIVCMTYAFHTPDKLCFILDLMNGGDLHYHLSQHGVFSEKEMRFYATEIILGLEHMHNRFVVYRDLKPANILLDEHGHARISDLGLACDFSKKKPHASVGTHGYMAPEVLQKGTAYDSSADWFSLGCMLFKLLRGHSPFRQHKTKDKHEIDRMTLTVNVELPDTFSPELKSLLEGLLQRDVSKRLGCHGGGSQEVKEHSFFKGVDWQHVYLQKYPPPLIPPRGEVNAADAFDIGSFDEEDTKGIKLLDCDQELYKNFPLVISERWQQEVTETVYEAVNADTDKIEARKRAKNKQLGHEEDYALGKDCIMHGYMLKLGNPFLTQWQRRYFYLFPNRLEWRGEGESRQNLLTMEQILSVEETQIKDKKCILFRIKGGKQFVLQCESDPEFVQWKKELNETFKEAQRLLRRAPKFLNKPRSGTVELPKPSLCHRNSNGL
How it was run: (§1)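 Compounds were screened at 1 μM in DMSO across a 468-kinase KinomeScan panel. Binding was expressed as % control, scaled between a positive control (0%) and DMSO (100%) using luminescence signal. A value under 35% counted as active.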

KIT = biological target: T2, KIT (Homo sapiens, UniProt P10721); conditions: read-out: % control
T2 construct: purchased KinomeScan®
T2 sequence (P10721 26-976): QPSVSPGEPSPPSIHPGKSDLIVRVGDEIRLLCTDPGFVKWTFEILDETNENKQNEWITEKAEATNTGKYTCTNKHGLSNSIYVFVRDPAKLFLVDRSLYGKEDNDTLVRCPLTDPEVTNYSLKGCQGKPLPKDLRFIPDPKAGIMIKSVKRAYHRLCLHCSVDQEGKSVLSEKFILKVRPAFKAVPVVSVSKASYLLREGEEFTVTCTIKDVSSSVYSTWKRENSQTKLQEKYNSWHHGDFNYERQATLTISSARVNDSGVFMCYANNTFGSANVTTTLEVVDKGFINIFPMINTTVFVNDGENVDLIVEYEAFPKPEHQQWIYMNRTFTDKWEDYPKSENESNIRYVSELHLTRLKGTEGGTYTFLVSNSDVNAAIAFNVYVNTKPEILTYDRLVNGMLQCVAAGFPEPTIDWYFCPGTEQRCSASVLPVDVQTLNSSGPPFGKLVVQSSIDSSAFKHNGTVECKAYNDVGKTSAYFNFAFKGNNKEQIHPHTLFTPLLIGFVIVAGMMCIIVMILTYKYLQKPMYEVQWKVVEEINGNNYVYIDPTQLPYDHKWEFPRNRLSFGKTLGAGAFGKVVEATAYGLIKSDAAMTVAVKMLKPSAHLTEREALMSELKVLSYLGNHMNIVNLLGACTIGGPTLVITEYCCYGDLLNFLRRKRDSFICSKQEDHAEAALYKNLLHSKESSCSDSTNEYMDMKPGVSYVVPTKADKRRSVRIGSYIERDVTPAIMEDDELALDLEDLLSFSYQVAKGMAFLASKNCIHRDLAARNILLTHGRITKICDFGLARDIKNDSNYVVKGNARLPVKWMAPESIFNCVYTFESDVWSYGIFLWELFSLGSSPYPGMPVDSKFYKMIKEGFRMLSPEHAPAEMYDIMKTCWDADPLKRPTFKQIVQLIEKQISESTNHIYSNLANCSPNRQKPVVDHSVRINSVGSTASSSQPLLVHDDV
How it was run: as §1

IKK-epsilon = biological target: T3, IKK-epsilon (Homo sapiens, UniProt Q14164); conditions: read-out: % control
T3 construct: purchased KinomeScan®
T3 sequence (Q14164 1-716): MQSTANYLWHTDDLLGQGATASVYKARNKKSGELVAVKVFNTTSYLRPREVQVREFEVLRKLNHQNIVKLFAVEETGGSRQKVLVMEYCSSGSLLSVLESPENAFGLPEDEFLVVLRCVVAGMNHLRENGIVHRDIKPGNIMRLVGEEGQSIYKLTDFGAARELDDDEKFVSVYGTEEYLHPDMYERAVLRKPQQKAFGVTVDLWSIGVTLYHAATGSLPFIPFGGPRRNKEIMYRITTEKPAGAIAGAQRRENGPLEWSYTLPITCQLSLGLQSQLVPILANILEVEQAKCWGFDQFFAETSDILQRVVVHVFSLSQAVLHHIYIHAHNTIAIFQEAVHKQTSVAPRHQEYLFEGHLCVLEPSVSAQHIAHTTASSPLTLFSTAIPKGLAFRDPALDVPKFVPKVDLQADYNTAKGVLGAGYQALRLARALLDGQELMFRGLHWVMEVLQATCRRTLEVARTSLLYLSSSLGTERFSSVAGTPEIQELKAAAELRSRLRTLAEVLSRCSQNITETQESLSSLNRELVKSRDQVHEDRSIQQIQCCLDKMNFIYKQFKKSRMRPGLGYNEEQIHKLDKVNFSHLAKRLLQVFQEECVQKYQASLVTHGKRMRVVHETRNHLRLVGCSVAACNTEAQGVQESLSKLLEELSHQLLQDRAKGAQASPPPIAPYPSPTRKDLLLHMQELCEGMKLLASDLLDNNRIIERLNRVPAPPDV
How it was run: as §1

[1] = biological target: T4, ABL1(F317I)-nonphosphorylated (Homo sapiens, UniProt P00519, F317I); conditions: read-out: % control
T4 construct: purchased KinomeScan®
T4 sequence (P00519 whole entry F317I): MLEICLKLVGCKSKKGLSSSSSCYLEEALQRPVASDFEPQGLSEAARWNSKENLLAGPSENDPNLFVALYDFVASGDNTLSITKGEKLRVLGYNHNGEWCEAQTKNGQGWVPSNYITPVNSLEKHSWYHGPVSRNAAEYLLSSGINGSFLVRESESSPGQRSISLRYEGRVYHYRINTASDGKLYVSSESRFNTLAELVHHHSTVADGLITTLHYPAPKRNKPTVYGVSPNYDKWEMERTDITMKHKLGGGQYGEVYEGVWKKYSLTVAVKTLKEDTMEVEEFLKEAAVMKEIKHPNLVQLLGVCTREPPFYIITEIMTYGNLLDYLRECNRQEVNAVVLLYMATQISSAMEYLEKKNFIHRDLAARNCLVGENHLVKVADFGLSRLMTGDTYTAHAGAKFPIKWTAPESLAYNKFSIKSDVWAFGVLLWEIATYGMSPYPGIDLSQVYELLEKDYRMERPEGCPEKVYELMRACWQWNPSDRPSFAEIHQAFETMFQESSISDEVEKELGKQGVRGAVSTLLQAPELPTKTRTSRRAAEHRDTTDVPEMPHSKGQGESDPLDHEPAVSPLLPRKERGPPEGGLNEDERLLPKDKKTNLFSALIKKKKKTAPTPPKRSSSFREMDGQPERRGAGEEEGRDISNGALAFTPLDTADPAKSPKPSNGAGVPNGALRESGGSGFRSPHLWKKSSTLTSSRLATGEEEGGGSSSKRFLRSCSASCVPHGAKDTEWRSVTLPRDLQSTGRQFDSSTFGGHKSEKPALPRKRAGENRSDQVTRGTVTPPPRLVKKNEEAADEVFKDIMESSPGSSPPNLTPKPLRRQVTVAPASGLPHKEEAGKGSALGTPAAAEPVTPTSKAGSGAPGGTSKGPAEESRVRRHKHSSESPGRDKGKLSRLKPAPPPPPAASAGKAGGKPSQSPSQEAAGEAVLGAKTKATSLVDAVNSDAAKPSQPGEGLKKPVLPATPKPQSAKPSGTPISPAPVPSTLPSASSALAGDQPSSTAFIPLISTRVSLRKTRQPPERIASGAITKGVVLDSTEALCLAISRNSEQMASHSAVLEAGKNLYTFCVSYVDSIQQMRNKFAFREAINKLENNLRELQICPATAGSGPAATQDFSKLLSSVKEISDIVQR
How it was run: as §1

EPHA8 = biological target: T5, EPHA8 (Homo sapiens, UniProt P29322); conditions: EPHA8, 1 μM; read-out: % control
T5 sequence (P29322 28-1005): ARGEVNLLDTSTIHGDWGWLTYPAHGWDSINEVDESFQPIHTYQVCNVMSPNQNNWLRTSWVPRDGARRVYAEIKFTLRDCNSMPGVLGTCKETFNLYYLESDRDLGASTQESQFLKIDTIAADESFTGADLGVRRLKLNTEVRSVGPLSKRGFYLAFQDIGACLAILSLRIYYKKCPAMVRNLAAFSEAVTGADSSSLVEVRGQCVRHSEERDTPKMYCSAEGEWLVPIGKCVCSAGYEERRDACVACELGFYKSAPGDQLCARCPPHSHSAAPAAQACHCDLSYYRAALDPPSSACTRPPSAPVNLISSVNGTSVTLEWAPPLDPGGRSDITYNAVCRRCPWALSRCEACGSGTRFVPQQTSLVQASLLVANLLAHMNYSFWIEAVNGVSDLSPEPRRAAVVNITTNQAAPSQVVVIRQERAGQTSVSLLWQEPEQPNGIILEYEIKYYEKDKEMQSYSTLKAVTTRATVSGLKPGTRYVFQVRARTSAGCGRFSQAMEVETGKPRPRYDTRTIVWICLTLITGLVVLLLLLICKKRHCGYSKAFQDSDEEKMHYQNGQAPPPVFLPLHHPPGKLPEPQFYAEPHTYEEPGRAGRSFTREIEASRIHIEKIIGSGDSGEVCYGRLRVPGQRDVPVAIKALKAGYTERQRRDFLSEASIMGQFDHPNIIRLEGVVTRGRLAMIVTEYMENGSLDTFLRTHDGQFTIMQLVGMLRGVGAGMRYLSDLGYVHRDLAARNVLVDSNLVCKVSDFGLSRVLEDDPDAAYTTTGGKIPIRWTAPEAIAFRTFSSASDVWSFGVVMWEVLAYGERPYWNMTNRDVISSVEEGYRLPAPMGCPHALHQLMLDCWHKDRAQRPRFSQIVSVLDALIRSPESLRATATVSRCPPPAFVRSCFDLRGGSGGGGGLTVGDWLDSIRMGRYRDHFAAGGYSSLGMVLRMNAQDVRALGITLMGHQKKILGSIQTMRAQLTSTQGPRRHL
How it was run: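 The panel spans 468 kinases, and each inventive compound was applied at 1 μM from DMSO. Lower % control means stronger binding; the activity cut-off is set at less than 35%.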

SMILES | remaining binding at 1 µM (GRK3) [%] | remaining binding at 1 µM (KIT) [%] | remaining binding at 1 µM (IKK-epsilon) [%] | remaining binding at 1 µM [1] [%] | remaining binding at 1 µM (EPHA8) [%]
CNc1c(-c2ccc(C(=O)N3CCC(N4CCOCC4)CC3)cc2)cnc2[nH]cc(Cl)c12 [Compound 96, (4-(3-chloro-4-(methylamino)-1H-pyrrolo[2,3-b]pyridin-5-yl)phenyl)(4-morpholinopiperidin-1-yl)methanone] | 92 | 11 | 68 | 100 | 96
O=C(c1ccc(-c2cnc3[nH]cc(Cl)c3c2NC2CCCC2)cc1)N1CCC(N2CCOCC2)CC1 [Compound 101, (4-(3-chloro-4-(cyclopentylamino)-1H-pyrrolo[2,3-b]pyridin-5-yl)phenyl)(4-morpholinopiperidin-1-yl)methanone] | 94 | 58 | 99 | 100 | 93
CNc1c(-c2cnn([C@H]3CCN(C(C)=O)C[C@@H]3F)c2)cnc2[nH]cc(Cl)c12 [Compound 77, 1-((3S,4S)-4-(4-(3-chloro-4-(methylamino)-1H-pyrrolo[2,3-b]pyridin-5-yl)-1H-pyrazol-1-yl)-3-fluoropiperidin-1-yl)ethan-1-one] | 93 | 4.8 | 64 | 100 | 94
